# Results as given in patent US8895033B2, “Sustained release formulations using non-aqueous carriers” (Amylin Pharmaceuticals, LLC, priority 2008, dated 2014).
# Experiment: Fraction of drug in microparticles and in MCT oil carrier after storage
# Assay type: physicochemical
# Source text: Mixtures ranged from 2% to 10% w/w of the active pharmaceutical ingredient. The mixed powder was transferred to an extruder where the temperature was adjusted according to the chosen polymer. Some polymers needed higher temperatures to produce a melt with good flow properties. The extruder contained twin screws that moved clockwise to produce efficient mixing. The material was extruded through a 1.5 mm orifice, collected, cooled at room temperature, and cut into short strands about 1-2 inches long. These strands were then fed into a 12-tooth rotor mill, followed by a sieving step to produce microparticles of about 20 to 100 microns. The microparticles were collected and stored at 5° C. until further use.
# Experimental samples were prepared by dispersing about 50 mg of the microparticles into 0.75 mL of a MCT oil carrier. The samples were stored at 5° C. and 25° C. for two days, two weeks, or one month, at which times representative samples were tested. The fraction of drug that remained in the microparticles and the fraction of drug that partitioned into the MCT oil carrier were determined. Briefly, the samples were centrifuged to separate the microparticles from the MCT oil carrier. Each portion was treated independently to determine the amount of drug it contained. Results are reported on the basis of the percent residing in each independent portion.
# [1] = PLGA copolymer, 1 Month Storage at 5° C.
# [2] = PLGA copolymer, 1 Month Storage at 25° C.
# [3] = PLGA copolymer, 2 Days Storage at 5° C.
# [4] = PLGA copolymer, 2 Days Storage at 25° C.
# [5] = polycaprolactone/PLGA copolymer, Two Weeks Storage, 5° C.
# [6] = polycaprolactone/PLGA copolymer, Two Weeks Storage, 25° C.
percent of drug in MCT Carrier [5],percent of drug in Microparticles [5],percent of drug in MCT Carrier [6],percent of drug in Microparticles [6],Compound,percent of drug in MCT Carrier [1],percent of drug in Microparticles [1],percent of drug in MCT Carrier [2],percent of drug in Microparticles [2],percent of drug in MCT Carrier [3],percent of drug in Microparticles [3],percent of drug in MCT Carrier [4],percent of drug in Microparticles [4],migration into the MCT carrier oil (from microparticles on storage)
0.0%,100.0%,0.0%,100.0%,CC[C@H](C)[C@H](NC(=O)[C@@H]1CCCN1C(=O)CNC(=O)[C@H](Cc1ccccc1)NC(=O)[C@H](CC(N)=O)NC(=O)[C@H](CC(N)=O)NC(=O)[C@H](CO)NC(=O)[C@H](CO)NC(=O)[C@H](Cc1c[nH]cn1)NC(=O)[C@@H](NC(=O)[C@H](CC(C)C)NC(=O)[C@H](Cc1ccccc1)NC(=O)[C@H](CC(N)=O)NC(=O)[C@H](C)NC(=O)[C@H](CC(C)C)NC(=O)[C@H](CCCNC(=N)N)NC(=O)[C@H](CCC(N)=O)NC(=O)[C@@H](NC(=O)[C@H](C)NC(=O)[C@@H]1CSSC[C@H](NC(=O)[C@@H](N)CCCCN)C(=O)N[C@@H](CC(N)=O)C(=O)N[C@@H]([C@@H](C)O)C(=O)N[C@@H](C)C(=O)N[C@@H]([C@@H](C)O)C(=O)N1)[C@@H](C)O)C(C)C)C(=O)N[C@@H](CC(C)C)C(=O)N1CCC[C@H]1C(=O)N1CCC[C@H]1C(=O)N[C@H](C(=O)N[C@@H](CC(N)=O)C(=O)N[C@H](C(=O)NCC(=O)N[C@@H](CO)C(=O)N[C@@H](CC(N)=O)C(=O)N[C@H](C(=O)N[C@@H](Cc1ccc(O)cc1)C(N)=O)[C@@H](C)O)C(C)C)[C@@H](C)O [pramlintide],0.3%,99.7%,0.0%,100.0%,0.0%,100.0%,0.0%,100.0%,
,,,,O=C(O)c1ccccc1O [salicylic acid],0.1%,99.9%,0.2%,99.8%,1.1%,98.9%,0.9%,99.1%,did not migrate
,,,,O=C([O-])c1ccccc1O.[Na+] [sodium salicylate],1.3%,98.7%,1.5%,98.5%,0.5%,99.5%,2.3%,97.7%,
,,,,bovine serum albumin,0.0%,100.0%,0.0%,100.0%,0.0%,100.0%,0.0%,100.0%,
,,,,davalintide,0.6%,99.4%,0.0%,100.0%,0.2%,99.8%,0.0%,100.0%,
,,,,insulin,0.5%,99.5%,0.7%,,,,,,
,,,,metreleptin,0.0%,100.0%,0.0%,100.0%,0.0%,100.0%,0.0%,100.0%,
